The values that follow come from patent US8772481B2, “Aza- and diaza-phthalazine compounds as P38 map kinase modulators and methods of use thereof” (Amgen Inc., priority 2008, dated 2014).

The target of one test is human p38α (Homo sapiens (Human), UniProt Q16539). Kind of test: Purified and activated recombinant human p38α HTRF assay. It counts as biochemical. Conditions: 50 μM ATP, read-out: p38a IC50. As to the method:
Purified and Activated Recombinant Human p38α Assay
Kinase reaction buffer for p38α HTRF assays consists of 50 mM Tris-pH 7.5, 5 mM MgCl2, 0.1 mg/mL BSA, 100 μM Na3VO4 and 0.5 mM DTT.
HTRF detection buffer contains 100 mM HEPES-pH 7.5, 100 mM NaCl, 0.1% BSA, 0.05% Tween-20, and 10 mM EDTA.
Serial Dilution of Compounds:
Compounds were dissolved in 100% DMSO and serially diluted (3 fold, 10 point) in a polypropylene 96-well microtiter plate (drug plate). The final starting concentration of compounds in the p38α enzymatic assays was 1 μM. Columns 6 and 12 (HI controls and LO controls respectively) in the drug plate were reserved as controls and contained only DMSO.
The p38α kinase reactions were carried out in a polypropylene 96-well black round bottom assay plate in total volume of 30 μL kinase reaction buffer. Appropriate concentration of purified and activated enzyme (recombinant human) was mixed with indicated concentration of ATP and 100 nM GST-ATF2-Avitag, in the presence or absence (HI control) of Compound. See table below for actual concentrations. In the absence of substrate, the background was measured as LO control. The reaction was allowed to incubate for 1 hour at RT.
Assay Reagent Concentrations:
The final reagent concentrations were 1 nM p38α and 50 μM ATP.
After 60 minutes incubation at room temperature, the assay plate was read in a Discovery Plate Reader. The wells were excited with coherent 320 nm light and the ratio of delayed ([…] post excitation) emissions at […] (native europium fluorescence) and 665 nm (europium fluorescence transferred to allophycocyanin—an index of substrate phosphorylation) was determined (Park et al, 1999).
The proportion of substrate phosphorylated in the kinase reaction in the presence of compound compared with that phosphorylated in the presence of DMSO vehicle alone (HI control) was calculated using the formula: % control (POC)=(compound−average LO)/(average HI−average LO)*100. Data (consisting of POC and inhibitor concentration in μM) was fitted to a 4-parameter equation (y=A+((B−A)/(1+((x/C)^D))), where A is the minimum y (POC) value, B is the maximum y (POC), C is the x (compound concentration) at the point of inflection and D is the slope factor, using a Levenburg-Marquardt non-linear regression algorithm.
The inhibition constant (Ki) of the inhibitor was estimated from the IC50 (compound concentration at the point of inflection C) using the Cheng-Prussof equation: Ki=IC50/(1+S/Km), where S is the ATP substrate concentration, and Km is the Michaelis constant for ATP as determined experimentally. All results were expressed as the mean±the standard error of the mean. Data acquisition and non-linear regression algorithms were performed using Activity Base v5.2 and XL-fit software v4.1 respectively. All data was archived using Activity Base v5.2 software.

Test [1] relates to TNF-α induced IL-8 in human whole blood. Kind of test: Inhibition of TNF-α induced IL-8 in 50% human whole blood. It counts as cell-based. Conditions: 1 nM TNF-α, secreted IL-8, read-out: WB TNF/IL8 IC50. Here is the method:
Inhibition of TNF-α Induced IL-8 in 50% Human Whole Blood
Test compounds were evaluated in vitro for the ability to inhibit the production of secreted IL-8 by whole blood activated with TNF-α. Fresh human whole blood was obtained from healthy, non-medicated volunteers in sodium heparin tubes.
Compound Dilution—Assay Procedure
Test compounds are serially diluted 1:3 in DMSO and then diluted 1:250 into R10 (RPMI 1640, 10% human serum AB, 1× pen/strep/glutamine) to the 4× working concentration to be used in the assay. 100 ul heparinized whole blood is plated into wells of 96 well flat bottom plates. 50 ul of either 4× compound or DMSO control (Final DMSO concentration is 0.1%) are added to the appropriate wells. Plates are incubated for 1 hour at 37 degrees Celsius. 50 ul of 4×TNF-α (4 nM TNF-α, for a final concentration of 1 nM) or control (media alone) is added to the appropriate wells (Total volume=200 ul). Plates are incubated overnight (16-18 hours). 100 ul of supernatant is collected and stored in 96-well round bottom polypropylene plates at −80 degrees Celsius or assayed immediately for IL-8.
Cytokines are measured on antibody (Ab) sandwich ECL based 96-well detection plates. 20 ul of supernatant are added to plate and plate is sealed and shaken at RT for 1 hour. 130 ul of detection Ab cocktail is added and plates are sealed and shaken for 1 hour in the dark at RT. Plates are read on MSD Sector HTS instrument. Data are analyzed and IC50 values generated using Activity Base and Xl-fit programs.

pIC50: −log10 of the molar value.

Chain of human p38α (Q16539 whole entry): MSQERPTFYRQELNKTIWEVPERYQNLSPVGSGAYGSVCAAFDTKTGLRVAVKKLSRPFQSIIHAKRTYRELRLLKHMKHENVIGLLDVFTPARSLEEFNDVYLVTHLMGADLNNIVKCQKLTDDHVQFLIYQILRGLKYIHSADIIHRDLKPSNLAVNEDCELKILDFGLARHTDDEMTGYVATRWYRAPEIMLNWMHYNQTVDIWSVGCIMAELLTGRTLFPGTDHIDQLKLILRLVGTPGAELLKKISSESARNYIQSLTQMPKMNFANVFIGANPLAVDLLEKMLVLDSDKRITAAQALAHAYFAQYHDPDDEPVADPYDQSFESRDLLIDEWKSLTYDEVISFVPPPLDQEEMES

As to `Fc1ccc(Nc2ccc3c(N4CCOCC4)nncc3n2)c(F)c1` [Example 3, N-(2,4-difluorophenyl)-5-(4-morpholinyl)pyrido[2,3-d]pyridazin-2-amine], the pIC50 at human p38α was 8.40; in test [1], 8.12.

Take `Cc1ccc(C(N)=O)cc1-c1nncc2nc(Oc3ccc(F)cc3F)ccc12` [Example 5, 3-(2-(2,4-difluorophenoxy)pyrido[2,3-d]pyridazin-5-yl)-4-methylbenzamide]: the figures for the pIC50 (at human p38α; in test [1]) were 9.52 and 9.00, respectively.

Take `Cc1ccccc1-c1nncc2nc(Nc3ccc(F)cc3F)ccc12` [Example 6, N-(2,4-difluorophenyl)-5-(2-methylphenyl)pyrido[2,3-d]pyridazin-2-amine]: the pIC50 on human p38α is 9.30; in test [1], 8.96.

As to `Cc1cc(S(C)(=O)=O)ccc1-c1nncc2nc(Nc3ccc(F)cc3F)ccc12` [Example 7, N-(2,4-difluorophenyl)-5-(2-methyl-4-(methylsulfonyl)phenyl)pyrido[2,3-d]pyridazin-2-amine], the pIC50 at human p38α was 9.30; in test [1], 8.59.

Consider `Cc1ncccc1-c1nncc2nc(Nc3ccc(F)cc3F)ccc12` [Example 8, N-(2,4-difluorophenyl)-5-(2-methyl-3-pyridinyl)pyrido[2,3-d]pyridazin-2-amine], for which the results for the pIC50 (at human p38α; in test [1]) were 8.92 and 8.59, respectively.

As for `Cc1cc(S(C)(=O)=O)ccc1-c1nncc2nc(Nc3ccc(F)cc3)ccc12` [Example 9, N-(4-fluorophenyl)-5-(2-methyl-4-(methylsulfonyl)phenyl)pyrido[2,3-d]pyridazin-2-amine], the pIC50 on human p38α is 9.05; in test [1] it was 8.05.

With `Fc1ccc(Nc2ccc3c(-c4ccc(F)cc4F)nncc3n2)c(F)c1` [Example 10, N,5-bis(2,4-difluorophenyl)pyrido[2,3-d]pyridazin-2-amine], the pIC50 on human p38α is 9.52; in test [1], 8.68.

For `O=C(c1cccc(-c2nncc3nc(Nc4ccc(F)cc4F)ccc23)c1)N1CCOCC1` [Example 11, N-(2,4-difluorophenyl)-5-(3-(4-morpholinylcarbonyl)phenyl)pyrido[2,3-d]pyridazin-2-amine], the pIC50 is 7.35 at human p38α and 7.10 in test [1].

Turning to `Cn1cc(-c2nncc3nc(Nc4ccc(F)cc4F)ccc23)cn1` [Example 12, N-(2,4-difluorophenyl)-5-(1-methyl-1H-pyrazol-4-yl)pyrido[2,3-d]pyridazin-2-amine], the pIC50 at human p38α was 8.25; in test [1], 7.89.

As to `Fc1ccc(Nc2ccc3c(-c4cn[nH]c4)nncc3n2)c(F)c1` [Example 13, N-(2,4-difluorophenyl)-5-(1H-pyrazol-4-yl)pyrido[2,3-d]pyridazin-2-amine], the results for the pIC50 (at human p38α; in test [1]) were 8.46 and 8.64, respectively.

Regarding `Cc1n[nH]cc1-c1nncc2nc(Nc3ccc(F)cc3F)ccc12` [Example 14, N-(2,4-difluorophenyl)-5-(3-methyl-1H-pyrazol-4-yl)pyrido[2,3-d]pyridazin-2-amine], the values for the pIC50 (at human p38α; in test [1]) were 8.96 and 8.57, respectively.

With `Cc1noc(C)c1-c1nncc2nc(Nc3ccc(F)cc3F)ccc12` [Example 15, N-(2,4-difluorophenyl)-5-(3,5-dimethyl-4-isoxazolyl)pyrido[2,3-d]pyridazin-2-amine], the pIC50 at human p38α was 8.15; in test [1], 8.00.

Consider `Cc1ccccc1-c1nncc2nc(Oc3ccc(F)cc3F)ccc12` [Example 16, 2-(2,4-difluorophenoxy)-5-(2-methylphenyl)pyrido[2,3-d]pyridazine], for which the pIC50 was 9.70 on human p38α and 8.64 in test [1].

`Cc1cc(S(C)(=O)=O)ccc1-c1nncc2nc(Oc3ccc(F)cc3F)ccc12` [Example 17, 2-(2,4-difluorophenoxy)-5-(2-methyl-4-(methylsulfonyl)phenyl)pyrido[2,3-d]pyridazine]: the pIC50 at human p38α was 9.15; in test [1], 7.92.

`Fc1ccc(Oc2ccc3c(-c4cn[nH]c4)nncc3n2)c(F)c1` [Example 18, 2-(2,4-difluorophenoxy)-5-(1H-pyrazol-4-yl)pyrido[2,3-d]pyridazine]: the pIC50 on human p38α is 8.29; in test [1] it was 7.62.

On to `Cc1ccccc1-c1nncc2nc(Oc3ccc(F)cc3)ccc12` [Example 19, 2-(4-fluorophenoxy)-5-(2-methylphenyl)pyrido[2,3-d]pyridazine], for which the values for the pIC50 (on human p38α; in test [1]) were 9.05 and 8.23, respectively.

Take `Cc1ccc(C(N)=O)cc1-c1nncc2nc(Oc3ccc(F)cc3)ccc12` [Example 20, 3-(2-(4-fluorophenoxy)pyrido[2,3-d]pyridazin-5-yl)-4-methylbenzamide]: the figures for the pIC50 (on human p38α; in test [1]) were 8.92 and 8.51, respectively.

As to `Cc1noc(C)c1-c1nncc2nc(Oc3ccc(F)cc3F)ccc12` [Example 21, 2-(2,4-difluorophenoxy)-5-(3,5-dimethyl-4-isoxazolyl)pyrido[2,3-d]pyridazine], the pIC50 at human p38α was 8.19; in test [1] it was 7.37.

Consider `Cc1cc(F)ccc1Oc1ccc2c(-c3ccccc3C)nncc2n1` [Example 22, 2-(4-fluoro-2-methylphenoxy)-5-(2-methylphenyl)pyrido[2,3-d]pyridazine], for which the pIC50 at human p38α is 6.77; in test [1], 6.21.

In the case of `Cc1cc(F)ccc1Oc1ccc2c(-c3cc(C(N)=O)ccc3C)nncc2n1` [Example 23, 3-(2-(4-fluoro-2-methylphenoxy)pyrido[2,3-d]pyridazin-5-yl)-4-methylbenzamide], the pIC50 on human p38α is 6.38; in test [1] it was 5.99.

In the case of “N-(2,4-difluorophenyl)-5-(3,5-dimethyl-1H-pyrazol-4-yl)pyrido[2,3-d]pyridazin-2-amine [Example 2]”, the pIC50 is 8.80 on human p38α and 8.74 in test [1].
